Measurements taken from patent publication US20250326769A1, “HETEROAROMATIC MACROCYCLIC ETHER CHEMOTHERAPEUTIC AGENTS” (Nuvalent, Inc., priority 2022, published 2025).

How the values were obtained:
Format in all cases: cell-based
Ba/F3 EML4-ALK v1 I1171N = Ba/F3 EML4-ALK v1 I1171N (Homo sapiens (Human), UniProt Q9HC35+Q9UM73, I1171N); experiment: Ba/F3 cell proliferation assay, EML4-ALK v1 I1171N; settings: for IC50: Ba/F3 stable cells, 72 hours, CellTiter-Glo; for ETV6-TRKB / EML4-ALK v1 I1171N: TRKB selectivity, ratio of Ba/F3 IC50 values
Excerpt: (§1) Genes encoding EML4-ALK v1 (variant 1), EML4-ALK v1 G1202R, EML4-ALK v1 I1171IN, EML4-ALK v1 D1203N, EML4-ALK v1 I1171N/D1203N, and ETV6-TRKB were synthesized at GeneRay, cloned into the retroviral construct pMSCV-puro (Biovector), and packaged into retroviral particles. The virus was used to infect Ba/F3 cells (RIKEN) at multiplicity of infection=1 for 1 day. Infected cells were rescued in media (RPMI-1640 with 10% fetal bovine serum and 1% streptomycin and penicillin) supplemented with mouse IL-3 (10 ng/mL) for 2 days, and stable cell lines were selected by IL-3 withdrawal and puromycin (0.8 μg/mL) for 7 days. Monoclones were selected by single-cell dilution in IL-3-free medium containing puromycin (0.8 μg/mL). Transformation of desired genes was confirmed by Sanger sequencing and western blot using the following antibodies: ALK (CST #3633) and pan-TRK (Abcam #76291).
(§2) Stable cells were plated in a 384-well plate. Test compounds were then added in a 3-fold dilution series and incubated for 72 hours. CellTiter-Glo reagent (Promega) was added. Luminescence was measured on a plate reader. Half-maximal inhibitory concentration (ICso) was calculated from percent inhibition and inhibitor concentration using four-parameter logistic regression. Compound potency can be interpreted by binning IC50 values: bin A for high potency, 0.1 nM IC50<50 nM; bin B for medium potency, 50 nM<IC50<500 nM; and bin C for low potency, IC50>500 nM. […] Exemplary data is given in Table 4 (nd is not determined).
(§3) Ba/F3 proliferation is driven by the transduced oncogenes in the same way that cancer cell proliferation in humans is driven by the expression of equivalent oncogenes.
(§4) TRKB selectivity was calculated by dividing a compound's TRKB potency by its primary target potency (e.g., ETV6-TRKB IC50/EML4-ALK v1 IC50). Compound selectivity can be interpreted by binning ratio values: bin A for very high selectivity, ratio≥30-fold; bin B for high selectivity, ratio≥10-fold but<30; bin C for moderate selectivity, ratio≥1 but<10; and bin D for low selectivity, ratio<1. […] (nd=not determined).

[1] = target: Ba/F3 EML4-ALK v1 I1171N/D1203N (Homo sapiens (Human), UniProt Q9HC35+Q9UM73, D1203N/I1171N); experiment: Ba/F3 cell proliferation assay, EML4-ALK v1 I1171N/D1203N; settings: for IC50: Ba/F3 stable cells, 72 hours, CellTiter-Glo; for ETV6-TRKB / EML4-ALK v1 I1171N/D1203N / Selectivity for Ba/F3 EML4-ALK v1 I1171N-D1203N IC50 over Ba/F3 ETV6-TRKB IC50: TRKB selectivity, ratio of Ba/F3 IC50 values; for Selectivity for Ba/F3 EML4-ALK v1 I1171N-D1203N IC50 over Ba/F3 ETV6-TRKB IC50: Table 6 bins
Excerpt: as §1, §2, §3, §4
Additional exemplified compounds were also tested against ALK-INDN and TRKB. The TRKB selectivity was calculated by dividing a compound's TRKB potency by its primary target potency (e.g., ETV6-TRKB IC50/EMIL4-ALK I1171N-D1203N v1 IC50). Compound selectivity can be interpreted by binning ratio values: bin AA for the selectivity with the ratio≥30-fold; bin BB for the selectivity with the ratio≥10-fold but<30; bin CC for the selectivity with the ratio≥5 but<10; bin DD for the selectivity with the ratio≥1 but<5; and bin EE for the selectivity with the ratio<1.

Ba/F3 ETV6-TRKB = Ba/F3 ETV6-TRKB (Homo sapiens, UniProt Q16620); experiment: Ba/F3 cell proliferation assay, ETV6-TRKB; settings: Ba/F3 stable cells, 72 hours, CellTiter-Glo; read-out: ETV6-TRKB IC50
Excerpt: as §1, §2, §3

Ba/F3 EML4-ALK v1 I1171N, sequence (Q9UM73 other isoform, or with tags, fused parts or gaps I1171N): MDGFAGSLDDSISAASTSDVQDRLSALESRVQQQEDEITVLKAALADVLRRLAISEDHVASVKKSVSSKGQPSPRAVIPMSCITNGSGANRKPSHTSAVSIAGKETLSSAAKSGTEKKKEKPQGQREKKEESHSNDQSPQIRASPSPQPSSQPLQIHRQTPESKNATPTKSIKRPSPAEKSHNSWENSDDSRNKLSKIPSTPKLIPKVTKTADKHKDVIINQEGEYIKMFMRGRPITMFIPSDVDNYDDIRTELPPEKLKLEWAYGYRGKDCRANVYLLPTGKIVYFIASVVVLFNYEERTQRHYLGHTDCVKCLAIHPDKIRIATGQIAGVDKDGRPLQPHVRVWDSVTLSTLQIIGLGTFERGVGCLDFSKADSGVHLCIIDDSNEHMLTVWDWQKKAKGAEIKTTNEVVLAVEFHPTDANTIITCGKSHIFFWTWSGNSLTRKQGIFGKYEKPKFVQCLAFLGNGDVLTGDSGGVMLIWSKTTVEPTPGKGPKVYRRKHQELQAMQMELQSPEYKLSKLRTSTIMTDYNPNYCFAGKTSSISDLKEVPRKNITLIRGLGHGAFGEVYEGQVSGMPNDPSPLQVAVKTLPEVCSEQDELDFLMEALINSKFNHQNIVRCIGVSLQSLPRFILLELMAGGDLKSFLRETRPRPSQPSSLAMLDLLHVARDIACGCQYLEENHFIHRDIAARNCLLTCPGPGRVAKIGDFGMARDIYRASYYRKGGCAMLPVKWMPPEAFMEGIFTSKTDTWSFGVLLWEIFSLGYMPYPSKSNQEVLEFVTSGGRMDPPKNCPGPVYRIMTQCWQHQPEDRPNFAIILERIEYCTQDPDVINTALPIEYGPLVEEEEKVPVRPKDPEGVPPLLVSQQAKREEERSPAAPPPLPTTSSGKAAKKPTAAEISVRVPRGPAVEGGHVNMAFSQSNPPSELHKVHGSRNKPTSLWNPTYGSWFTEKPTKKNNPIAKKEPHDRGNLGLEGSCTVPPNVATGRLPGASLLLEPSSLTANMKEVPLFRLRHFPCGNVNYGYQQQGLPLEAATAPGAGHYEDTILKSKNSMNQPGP
Ba/F3 ETV6-TRKB, sequence (Q16620 32-822 limits assumed, change not shown): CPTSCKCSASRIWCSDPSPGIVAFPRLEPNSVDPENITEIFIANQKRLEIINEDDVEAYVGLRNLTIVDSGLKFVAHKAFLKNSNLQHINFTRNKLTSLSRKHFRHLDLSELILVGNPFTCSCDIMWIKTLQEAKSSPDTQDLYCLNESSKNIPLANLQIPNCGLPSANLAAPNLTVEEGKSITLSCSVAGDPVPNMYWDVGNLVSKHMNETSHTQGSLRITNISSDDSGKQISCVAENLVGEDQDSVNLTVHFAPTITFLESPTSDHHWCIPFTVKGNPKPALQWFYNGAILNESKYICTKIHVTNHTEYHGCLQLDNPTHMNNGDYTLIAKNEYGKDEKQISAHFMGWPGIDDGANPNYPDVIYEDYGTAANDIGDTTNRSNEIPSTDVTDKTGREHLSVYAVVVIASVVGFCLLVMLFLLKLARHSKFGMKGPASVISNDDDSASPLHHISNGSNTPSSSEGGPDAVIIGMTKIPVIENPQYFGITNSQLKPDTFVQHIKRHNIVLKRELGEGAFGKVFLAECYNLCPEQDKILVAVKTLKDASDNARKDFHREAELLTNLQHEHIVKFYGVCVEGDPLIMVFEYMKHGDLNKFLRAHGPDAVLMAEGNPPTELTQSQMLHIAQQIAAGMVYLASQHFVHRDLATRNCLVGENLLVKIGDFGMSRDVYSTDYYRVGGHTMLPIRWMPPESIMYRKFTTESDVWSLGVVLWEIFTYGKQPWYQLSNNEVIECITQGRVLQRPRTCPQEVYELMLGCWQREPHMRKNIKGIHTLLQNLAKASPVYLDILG
Ba/F3 EML4-ALK v1 I1171N/D1203N, sequence (Q9UM73 other isoform, or with tags, fused parts or gaps I1171N/D1203N): as the sequence (Q9UM73 other isoform, or with tags, fused parts or gaps I1171N) above, with D642N counted along it

IC50 (Ba/F3 EML4-ALK v1 I1171N) [nM] | IC50 [1] [nM] | IC50 (Ba/F3 ETV6-TRKB) [nM] | SMILES | ETV6-TRKB / EML4-ALK v1 I1171N (Ba/F3 EML4-ALK v1 I1171N) | ETV6-TRKB / EML4-ALK v1 I1171N/D1203N [1] | Selectivity for Ba/F3 EML4-ALK v1 I1171N-D1203N IC50 over Ba/F3 ETV6-TRKB IC50 [1]
0.1 to 50 | 0.1 to 50 | 50 to 500 | COCCn1nc2c(c1C#N)-c1cnc(N)c(c1)O[C@H](C)c1cc(F)ccc1-c1ncccc1C2=O [Example 52, (R)-23-amino-17-fluoro-4-(2-methoxyethyl)-20-methyl-7-oxo-21-oxa-4,5,12,24-tetraazapentacyclo[20.3.1.0^2,^6.0^8,^13.0^14,^19]hexacosa-1(25),2,5,8,10,12,14,16,18,22(26),23-undecaene-3-carbonitrile] | A (bin A for very high selectivity, ratio≥30-fold) | A (bin A for very high selectivity, ratio≥30-fold) | AA (bin AA for the selectivity with the ratio≥30-fold)
0.1 to 50 | 0.1 to 50 | 50 to 500 | CCn1nc2c(c1C#N)-c1cnc(N)c(c1)O[C@H](C)c1cc(F)ccc1-c1ncccc1C2=O [Example 50, (R)-23-amino-4-ethyl-17-fluoro-20-methyl-7-oxo-21-oxa-4,5,12,24-tetraazapentacyclo[20.3.1.0^2,^6.0^8,^13.0^14,^19]hexacosa-1(25),2,5,8,10,12,14,16,18,22(26),23-undecaene-3-carbonitrile] | A (bin A for very high selectivity, ratio≥30-fold) | A (bin A for very high selectivity, ratio≥30-fold) | AA (bin AA for the selectivity with the ratio≥30-fold)
0.1 to 50 | 0.1 to 50 | 50 to 500 | C[C@H]1Oc2nc(cnc2N)-c2c(nn(C)c2C#N)C(=O)c2cccnc2-c2c(F)cc(F)cc21 [Example 82, (R)-23-amino-15,17-difluoro-4-methyl-20-methyl-7-oxo-21-oxa-4,5,12,24,26-pentaazapentacyclo[20.3.1.0^2,6.0^8,13.0^14,19]hexacosa-1(25),2,5,8(13),9,11,14,16,18,22(26),23-undecaene-3-carbonitrile] | C (bin C for moderate selectivity, ratio≥1 but<10) | A (bin A for very high selectivity, ratio≥30-fold) | –
0.1 to 50 | 0.1 to 50 | 50 to 500 | C[C@H]1Oc2cc(cnc2N)-c2c(nn(C)c2C#N)C(=O)c2cccnc2-c2c(F)cc(F)cc21 [Example 21, (R)-23-amino-15,17-difluoro-4-methyl-20-methyl-7-oxo-21-oxa-4,5,12,24-tetraazapentacyclo[20.3.1.0^2,^6.0^8,^13.0^14,^19]hexacosa-1(25),2,5,8,10,12,14,16,18,22(26),23-undecaene-3-carbonitrile] | B (bin B for high selectivity, ratio≥10-fold but<30) | A (bin A for very high selectivity, ratio≥30-fold) | AA (bin AA for the selectivity with the ratio≥30-fold)
50 to 500 | 0.1 to 50 | 50 to 500 | CCn1nc(C(=O)N(C)C)c2c1-c1cnc(N)c(c1)O[C@H](C)c1cc(F)cc(F)c1-c1ncccc1C2 [Example 46, N,N-dimethyl-(R)-23-amino-3-ethyl-15,17-difluoro-20-methyl-21-oxa-3,4,12,24-tetraazapentacyclo[20.3.1.0^2,^6.0^8,^13.0^14,^19]hexacosa-1(25),2(6),4,8(13),9,11,14,16,18,22(26),23-undecaene-5-carboxamide] | C (bin C for moderate selectivity, ratio≥1 but<10) | B (bin B for high selectivity, ratio≥10-fold but<30) | –
50 to 500 | 0.1 to 50 | > 500 | C[C@H]1Oc2cc(cnc2N)-c2c(nn(C)c2CC2CC2)C(=O)c2cccnc2-c2ccc(F)cc21 [Example 53, (R)-23-amino-3-(cyclopropylmethyl)-17-fluoro-4-methyl-20-methyl-21-oxa-4,5,12,24-tetraazapentacyclo[20.3.1.0^2,^6.0^8,^13.0^14,^19]hexacosa-1(25),2,5,8,10,12,14,16,18,22(26),23-undecaen-7-one] | B (bin B for high selectivity, ratio≥10-fold but<30) | A (bin A for very high selectivity, ratio≥30-fold) | –
> 500 | 50 to 500 | 50 to 500 | CCn1ncc2c1-c1cnc(N)c(c1)O[C@H](C)c1cc(F)ccc1-c1nn(C)cc1C2=O [Example 15, (R)-22-amino-3-ethyl-16-fluoro-10-methyl-19-methyl-20-oxa-3,4,10,11,23-pentaazapentacyclo[19.3.1.0^2,^6.0^8,^12.0^13,^18]pentacosa-1(24),2(6),4,8,11,13,15,17,21(25),22-decaen-7-one] | D (bin D for low selectivity, ratio<1) | C (bin C for moderate selectivity, ratio≥1 but<10) | DD (bin DD for the selectivity with the ratio≥1 but<5)
0.1 to 50 | 50 to 500 | 0.1 to 50 | CCn1ncc2c1-c1cnc(N)c(c1)O[C@H](C)c1cc(F)ccc1-c1ncccc1O2 [Example 14, (R)-3-ethyl-17-fluoro-20-methyl-7,21-dioxa-3,4,12,24-tetraazapentacyclo[20.3.1.0^2,^6.0^8,^13.0^14,^19]hexacosa-1(25),2(6),4,8(13),9,11,14,16,18,22(26),23-undecaen-23-ylamine] | – | – | –
0.1 to 50 | 0.1 to 50 | 50 to 500 | C[C@H]1Oc2cc(cnc2N)-c2c(c(C(=O)N(C)C)nn2C2CCC2)Cc2cccnc2-c2ccc(F)cc21 [Example 48, N,N-dimethyl-(R)-23-amino-3-cyclobutyl-17-fluoro-20-methyl-21-oxa-3,4,12,24-tetraazapentacyclo[20.3.1.0^2,^6.0^8,^13.0^14,^19]hexacosa-1(25),2(6),4,8(13),9,11,14,16,18,22(26),23-undecaene-5-carboxamide] | – | – | –

SMILES | IC50 (Ba/F3 EML4-ALK v1 I1171N) [nM] | IC50 [1] [nM] | IC50 (Ba/F3 ETV6-TRKB) [nM] | ETV6-TRKB / EML4-ALK v1 I1171N (Ba/F3 EML4-ALK v1 I1171N) | ETV6-TRKB / EML4-ALK v1 I1171N/D1203N [1] | Selectivity for Ba/F3 EML4-ALK v1 I1171N-D1203N IC50 over Ba/F3 ETV6-TRKB IC50 [1]
Cc1ccc2c(n1)-c1ccc(F)cc1[C@@H](C)Oc1cc(cnc1N)-c1c(C#N)nn(C(=O)N(C)C)c1C2 [Example 72, N,N-dimethyl-(R)-23-amino-3-cyano-17-fluoro-11,20-dimethyl-21-oxa-4,5,12,24-tetraazapentacyclo[20.3.1.0^2,^6.0^8,^13.0^14,^19]hexacosa-1(25),2(6),3,8(13),9,11,14,16,18,22(26),23-undecaene-5-carboxamide] | 50 to 500 | 50 to 500 | > 500 | A (bin A for very high selectivity, ratio≥30-fold) | B (bin B for high selectivity, ratio≥10-fold but<30) | –
C[C@H]1Oc2cc(cnc2N)-c2c(n[nH]c2C#N)C(=O)c2cccnc2-c2c(F)cc(F)cc21 [Example 77, (R)-23-amino-15,17-difluoro-20-methyl-7-oxo-21-oxa-4,5,12,24-NH2 tetraazapentacyclo[20.3.1.0^2,6.0^8,13.0^14,19]hexacosa-1(25),2,5,8,10,12,14,16,18,22(26),23-undecaene-3-carbonitrile] | 0.1 to 50 | 0.1 to 50 | 50 to 500 | B (bin B for high selectivity, ratio≥10-fold but<30) | A (bin A for very high selectivity, ratio≥30-fold) | –
